Experimental data: patent US12428455B2, “Dominant negative CEBPB and CEBPD proteins and methods of use for decreasing viability of neoplastic cells” (The Trustees of Columbia University in the City of New York, priority 2018, dated 2025)
No end group written: not given here.

Assays:
Type in all cases: cell-based
[1] = tested on: U251 gliblastoma multiforme cells; assay: Cell number after peptide treatment, U251; conditions: 6 days, 0 μM to 50 μM; stock without BSA
Procedure: (§1) Replicate cultures were exposed to the peptides the for 6 days at the indicated concentrations. Stock solutions of the peptides were prepared in buffer without added bovine serum albumin (BSA).

[2] = tested on: Mgpp3 murine proneural glioma cells; assay: Cell number after peptide treatment, Mgpp3; conditions: 6 days, 0 μM to 50 μM; stock without BSA
Procedure: as §1

A375 melanoma cells = assay: Cell number after peptide treatment, A375; conditions: 6 days, 0 μM to 50 μM; stock without BSA
Procedure: as §1

[3] = tested on: MCF10A non-cancer human breast epithelial cells; assay: Cell number after peptide treatment, MCF10A; conditions: 6 days, 0 μM to 50 μM; stock without BSA
Procedure: Replicate cultures of HIEC-6 non-cancer human intestinal epithelial cells, MCF10A non-cancer human breast epithelial cells, or normal human astrocytes were exposed to CP-DN-CEBPB or CP-DN-CEBPD, for 6 days at doses of 0 μM to 50 μM. […] Stock solutions of the peptides were prepared in buffer without added bovine serum albumin (BSA).

HCT116 cells = assay: Colony forming activity in soft agar, HCT116; conditions: 6 days; doses 0.05, 0.5 and 5 μM
Procedure: T98G (FIG. 21A), MDA-MB 231 (FIG. 21B), and HCT116 (FIG. 21C) cells were exposed to CP-DN-CEBPB and CP-DN-CEBPD for 6 days at doses of 0.05 μM 0.5 μM, and 5 μM while growing in soft agar. Growth was inhibited by does as low as 0.5 μM. T98G (FIG. 21D), MDA-MB 231 (FIG. 21E), and HCT116 (FIG. 21F) cells were exposed to CP-DN-CEBPB and CP-DN-CEBPD for 6 days at doses of 0.05 μM 0.5 μM, and 5 μM while growing on culture plates. Growth was inhibited by does as low as 0.5 μM.

[4] = tested on: MDA-MB-231, MCF7, HCT116 and T98G cancer cell lines; assay: PI-Annexin staining and flow cytometry, cancer cell lines; conditions: 20 μM, 3 days
Procedure: MDA-MB-231, MCF7, HCT116 and T98G cancer cell lines and HIEC-6 non-cancer cell lines were treated for 3 days with 20 μM CP-dn-CEBPB and CP-dn-CEBPD peptides from stock solutions prepared without additives, followed by PI-Annexin staining and flow cytometry. Numbers in upper and lower quadrants indicate % of cells in early (lower) or late (upper) apoptotic phase.

T98G cells = assay: Combination with gamma radiation, cell number, T98G; conditions: 2 Gy or 5 Gy; peptide 0.05, 0.5 or 5 μM one day later, 6 days; CI<1 indicates synergism
Procedure: Replicate cultures of T98G and HCT116 cells were exposed to 2 Gy or 5 Gy of gamma radiation. One day later, the cultures were treated with 0.05 μM, 0.5 μM, or 5 μM CP-dn-CEBPB and CP-dn-CEBPD peptides, maintained for 6 days, and then assessed for cell number. The bar graphs of FIGS. 24A (T98G, CP-dn-CEBPB), 24C (T98G, CP-dn-CEBPBD, 24E (HCT116, CP-dn-CEBPD), and 24G (HCT116, CP-dn-CEBPD) show relative cell numbers for each condition as compared to untreated controls. The line graphs of FIGS. 24B (T98G, CP-dn-CEBPB), 24D (T98G, CP-dn-CEBPBD, 24F (HCT116, CP-dn-CEBPB), and 24H (HCT116, CP-dn-CEBPD) show the response as normalized in each case so that 100 represents the relative number of surviving cells that received the indicated level of radiation treatment, but no peptide treatment. Calculated Combination Indexes (CI) are T98G, CI=0.61±0.05 for CP-dn-CEBPB, 0.68±0.07 for CP-dn-CEBPD; HCT116, 0.89±0.04 for CP-dn-CEBPB, 0.86±0.05 for CP-dn-CEBPD. CI=1 indicates additivity; CI<1 indicates synergism; CI>1 indicates antagonism.

IL6 = assay: qPCR for IL6 mRNA; conditions: 20 μM, 3 days; T98G, MDA-MB-231, MCF7, A375 and HCT116 cells
Procedure: (§2) T98G, MDA-MB-231, MCF7, A375, and HCT116 cells were treated with or without 20 μM CP-dn-CEBPB or CP-dn-CEBPD for 3 days and then assessed by qPCR for relative levels of IL6 (FIG. 32A, T98G; FIG. 32B, MDA-MB-231; FIG. 32C, MCF7; FIG. 32D, A375; FIG. 32E, HCT116) and IL8 mRNA (FIG. 32F, T98G; FIG. 32G, MDA-MB-231; FIG. 32H, MCF7; FIG. 32I, A375; FIG. 32J, HCT116).

IL8 = assay: qPCR for IL8 mRNA; conditions: 20 μM, 3 days; T98G, MDA-MB-231, MCF7, A375 and HCT116 cells
Procedure: as §2

[5] = tested on: ASNS (Asparagine synthetase); assay: qPCR for ASNS; conditions: 20 μM, 3 days; T98G, MDA-MB-231, MCF7, A375 and HCT116 cells
Procedure: T98G, MDA-MB-231, MCF7, A375, and HCT116 cells were treated with or without 20 μM CP-dn-CEBPB or CP-dn-CEBPD for 3 days and then assessed by qPCR for relative levels of ASNS (Asparagine synthetase) (FIG. 33A, T98G; FIG. 33B, MDA-MB-231; FIG. 33C, MCF7; FIG. 33D, A375; FIG. 33E, HCT116).

Sequence | growth and survival of U251 cells [1] | growth and survival of Mgpp3 cells [2] | growth and survival of A375 cells (A375 melanoma cells) | number of MCF10A cells [3] | lowest dose at which growth was inhibited, soft agar (HCT116 cells) [µM] | apoptotic death (early or late apoptotic phase) [4] | Combination Index (CI) with gamma radiation (T98G cells) | relative levels of IL6 mRNA (IL6) | relative levels of IL8 mRNA (IL8) | relative levels of ASNS [5]
RQIKIWFQNRRMKWKKLETQHKVLELTAENERLQKKVEQLSRELSTLRNLFKQL [CP-DN-CEBPB] | decrease in growth and survival | decrease in growth and survival | decrease in growth and survival | did not cause a dose-dependent decrease | 0.5 | caused apoptotic death in multiple cancer cell lines | 0.61±0.05 | suppress expression | suppress expression | suppress expression of ASNS
RQIKIWFQNRRMKWKKLVELSAENEKLHQRVEQLTRDLAGLRQFFK [CP-DN-CEBPD] | decrease in growth and survival | decrease in growth and survival | decrease in growth and survival | did not cause a dose-dependent decrease | 0.5 | caused apoptotic death in multiple cancer cell lines | 0.68±0.07 | suppress expression | suppress expression | suppress expression of ASNS
